What was measured:
Assay type in all cases: functional
NCI-H322M = assay: Cytotoxicity against human NCI-H322M cells assessed as growth inhibition at 10 uM after 48 hrs by coulter counter analysis; conditions: read-out: GI
NCI-H23 = assay: Cytotoxicity against human NCI-H23 cells assessed as growth inhibition at 10 uM after 48 hrs by coulter counter analysis; conditions: NCI-H23, 48 h, read-out: GI
NCI-H226 = assay: Cytotoxicity against human NCI-H226 cells assessed as growth inhibition at 10 uM after 48 hrs by coulter counter analysis; conditions: NCI-H226, 48 h, read-out: GI
HOP-62 = assay: Cytotoxicity against human HOP62 cells assessed as growth inhibition at 10 uM after 48 hrs by coulter counter analysis; conditions: HOP-62, 48 h, read-out: GI
[1] = Cytotoxicity against human EKVX cells assessed as growth inhibition at 10 uM after 48 hrs by coulter counter analysis; conditions: read-out: GI
MDA-MB-468 = assay: Cytotoxicity against human MDA-MB-468 cells assessed as growth inhibition at 10 uM after 48 hrs by coulter counter analysis; conditions: MDA-MB-468, 48 h, read-out: GI
Hs-578T = assay: Cytotoxicity against human Hs578T cells assessed as growth inhibition at 10 uM after 48 hrs by coulter counter analysis; conditions: read-out: GI
DU-145 = assay: Cytotoxicity against human DU145 cells assessed as growth inhibition at 10 uM after 48 hrs by coulter counter analysis; conditions: DU-145, 48 h, read-out: GI
PC-3 = assay: Cytotoxicity against human PC3 cells assessed as growth inhibition at 10 uM after 48 hrs by coulter counter analysis; conditions: PC-3, 48 h, read-out: GI
UO-31 = assay: Cytotoxicity against human UO31 cells assessed as growth inhibition at 10 uM after 48 hrs by coulter counter analysis; conditions: UO-31, 48 h, read-out: GI
TK-10 = assay: Cytotoxicity against human TK10 cells assessed as growth inhibition at 10 uM after 48 hrs by coulter counter analysis; conditions: TK-10, 48 h, read-out: GI
CAKI-1 = assay: Cytotoxicity against human Caki1 cells assessed as growth inhibition at 10 uM after 48 hrs by coulter counter analysis; conditions: CAKI-1, 48 h, read-out: GI
ACHN = assay: Cytotoxicity against human ACHN cells assessed as growth inhibition at 10 uM after 48 hrs by coulter counter analysis; conditions: read-out: GI
786-0 = assay: Cytotoxicity against human 786-0 cells assessed as growth inhibition at 10 uM after 48 hrs by coulter counter analysis; conditions: 786-0, 48 h, read-out: GI
[2] = Cytotoxicity against human NCI-ADR-RES cells assessed as growth inhibition at 10 uM after 48 hrs by coulter counter analysis; conditions: read-out: GI
OVCAR-8 = assay: Cytotoxicity against human OVCAR8 cells assessed as growth inhibition at 10 uM after 48 hrs by coulter counter analysis; conditions: OVCAR-8, 48 h, read-out: GI
OVCAR-4 = assay: Cytotoxicity against human OVCAR4 cells assessed as growth inhibition at 10 uM after 48 hrs by coulter counter analysis; conditions: OVCAR-4, 48 h, read-out: GI
OVCAR-3 = assay: Cytotoxicity against human OVCAR3 cells assessed as growth inhibition at 10 uM after 48 hrs by coulter counter analysis; conditions: OVCAR-3, 48 h, read-out: GI
IGROV-1 = assay: Cytotoxicity against human IGROV1 cells assessed as growth inhibition at 10 uM after 48 hrs by coulter counter analysis; conditions: IGROV-1, 48 h, read-out: GI
UACC-62 = assay: Cytotoxicity against human UACC62 cells assessed as growth inhibition at 10 uM after 48 hrs by coulter counter analysis; conditions: UACC-62, 48 h, read-out: GI
UACC-257 = assay: Cytotoxicity against human UACC257 cells assessed as growth inhibition at 10 uM after 48 hrs by coulter counter analysis; conditions: UACC-257, 48 h, read-out: GI
SK-MEL-5 = assay: Cytotoxicity against human SK-MEL-5 cells assessed as growth inhibition at 10 uM after 48 hrs by coulter counter analysis; conditions: SK-MEL-5, 48 h, read-out: GI
SK-MEL-28 = assay: Cytotoxicity against human SK-MEL-28 cells assessed as growth inhibition at 10 uM after 48 hrs by coulter counter analysis; conditions: SK-MEL-28, 48 h, read-out: GI
MDA-MB-435 = assay: Cytotoxicity against human MDA-MB-435 cells assessed as growth inhibition at 10 uM after 48 hrs by coulter counter analysis; conditions: MDA-MB-435, 48 h, read-out: GI
M14 = assay: Cytotoxicity against human M14 cells assessed as growth inhibition at 10 uM after 48 hrs by coulter counter analysis; conditions: M14, 48 h, read-out: GI
LOX IMVI = assay: Cytotoxicity against human LOXIMVI cells assessed as growth inhibition at 10 uM after 48 hrs by coulter counter analysis; conditions: read-out: GI
U-251 = assay: Cytotoxicity against human U251 cells assessed as growth inhibition at 10 uM after 48 hrs by coulter counter analysis; conditions: U-251, 48 h, read-out: GI
SNB-75 = assay: Cytotoxicity against human SNB75 cells assessed as growth inhibition at 10 uM after 48 hrs by coulter counter analysis; conditions: SNB-75, 48 h, read-out: GI
SF-295 = assay: Cytotoxicity against human SF295 cells assessed as growth inhibition at 10 uM after 48 hrs by coulter counter analysis; conditions: SF-295, 48 h, read-out: GI
SF-268 = assay: Cytotoxicity against human SF268 cells assessed as growth inhibition at 10 uM after 48 hrs by coulter counter analysis; conditions: SF-268, 48 h, read-out: GI
KM12 = assay: Cytotoxicity against human KM12 cells assessed as growth inhibition at 10 uM after 48 hrs by coulter counter analysis; conditions: KM12, 48 h, read-out: GI
HT-29 = assay: Cytotoxicity against human HT-29 cells assessed as growth inhibition at 10 uM after 48 hrs by coulter counter analysis; conditions: HT-29, 48 h, read-out: GI
HCT-15 = assay: Cytotoxicity against human HCT15 cells assessed as growth inhibition at 10 uM after 48 hrs by coulter counter analysis; conditions: HCT-15, 48 h, read-out: GI
HCT-116 = assay: Cytotoxicity against human HCT116 cells assessed as growth inhibition at 10 uM after 48 hrs by coulter counter analysis; conditions: HCT-116, 48 h, read-out: GI
HCC 2998 = assay: Cytotoxicity against human HCC2998 cells assessed as growth inhibition at 10 uM after 48 hrs by coulter counter analysis; conditions: HCC 2998, 48 h, read-out: GI
COLO 205 = assay: Cytotoxicity against human COLO205 cells assessed as growth inhibition at 10 uM after 48 hrs by coulter counter analysis; conditions: COLO 205, 48 h, read-out: GI
NCI-H460 = assay: Cytotoxicity against human NCI-H460 cells assessed as growth inhibition at 10 uM after 48 hrs by coulter counter analysis; conditions: NCI-H460, 48 h, read-out: GI

| SMILES | inhibition of growth at 10 µM (NCI-H322M) | inhibition of growth at 10 µM (NCI-H23) | inhibition of growth at 10 µM (NCI-H226) | inhibition of growth at 10 µM (HOP-62) | inhibition of growth at 10 µM [1] | inhibition of growth at 10 µM (MDA-MB-468) | inhibition of growth at 10 µM (Hs-578T) | inhibition of growth at 10 µM (DU-145) | inhibition of growth at 10 µM (PC-3) | inhibition of growth at 10 µM (UO-31) | inhibition of growth at 10 µM (TK-10) | inhibition of growth at 10 µM (CAKI-1) | inhibition of growth at 10 µM (ACHN) | inhibition of growth at 10 µM (786-0) | inhibition of growth at 10 µM [2] | inhibition of growth at 10 µM (OVCAR-8) | inhibition of growth at 10 µM (OVCAR-4) | inhibition of growth at 10 µM (OVCAR-3) | inhibition of growth at 10 µM (IGROV-1) | inhibition of growth at 10 µM (UACC-62) | further results |
| --- | --- | --- | --- | --- | --- | --- | --- | --- | --- | --- | --- | --- | --- | --- | --- | --- | --- | --- | --- | --- | --- |
| CCOc1ccc(NC(=O)CSc2nc3ccccc3c(=O)n2CCc2ccccc2)cc1 | 23% | < 10% | 31% | 36% | 19% | 10% | < 10% | < 10% | < 10% | 26% | < 10% | 12% | 12% | < 10% | < 10% | 29% | < 10% | < 10% | 21% | < 10% | inhibition of growth at 10 µM (UACC-257): < 10%; inhibition of growth at 10 µM (SK-MEL-5): < 10%; inhibition of growth at 10 µM (SK-MEL-28): < 10%; inhibition of growth at 10 µM (MDA-MB-435): 14%; inhibition of growth at 10 µM (M14): 10%; inhibition of growth at 10 µM (LOX IMVI): 11%; inhibition of growth at 10 µM (U-251): 27%; inhibition of growth at 10 µM (SNB-75): 21%; inhibition of growth at 10 µM (SF-295): < 10%; inhibition of growth at 10 µM (SF-268): 25%; inhibition of growth at 10 µM (KM12): < 10%; inhibition of growth at 10 µM (HT-29): 10%; inhibition of growth at 10 µM (HCT-15): < 10%; inhibition of growth at 10 µM (HCT-116): 16%; inhibition of growth at 10 µM (HCC 2998): < 10%; inhibition of growth at 10 µM (COLO 205): < 10%; inhibition of growth at 10 µM (NCI-H460): 11% |
| O=C(CSc1nc2ccccc2c(=O)n1CCc1ccccc1)Nc1ccccc1 | < 10% | 11% | < 10% | < 10% | 16% | 18% | < 10% | < 10% | 10% | < 10% | < 10% | < 10% | < 10% | < 10% | < 10% | < 10% | < 10% | < 10% | < 10% | 16% | inhibition of growth at 10 µM (UACC-257): < 10%; inhibition of growth at 10 µM (SK-MEL-5): 13%; inhibition of growth at 10 µM (SK-MEL-28): < 10%; inhibition of growth at 10 µM (MDA-MB-435): < 10%; inhibition of growth at 10 µM (M14): 10%; inhibition of growth at 10 µM (LOX IMVI): 11%; inhibition of growth at 10 µM (U-251): < 10%; inhibition of growth at 10 µM (SNB-75): 12%; inhibition of growth at 10 µM (SF-295): < 10%; inhibition of growth at 10 µM (SF-268): < 10%; inhibition of growth at 10 µM (KM12): < 10%; inhibition of growth at 10 µM (HT-29): < 10%; inhibition of growth at 10 µM (HCT-15): < 10%; inhibition of growth at 10 µM (HCT-116): 15%; inhibition of growth at 10 µM (HCC 2998): < 10%; inhibition of growth at 10 µM (COLO 205): < 10%; inhibition of growth at 10 µM (NCI-H460): < 10% |
| O=C(CSc1nc2ccccc2c(=O)n1CCc1ccccc1)NCc1ccccc1 | 26% | 10% | 13% | 36% | 25% | < 10% | 37% | 13% | 29% | 33% | 20% | 32% | 38% | 15% | 19% | 40% | 13% | 10% | 39% | 29% | inhibition of growth at 10 µM (UACC-257): < 10%; inhibition of growth at 10 µM (SK-MEL-5): 22%; inhibition of growth at 10 µM (SK-MEL-28): 12%; inhibition of growth at 10 µM (MDA-MB-435): 19%; inhibition of growth at 10 µM (M14): 14%; inhibition of growth at 10 µM (LOX IMVI): 17%; inhibition of growth at 10 µM (U-251): 24%; inhibition of growth at 10 µM (SNB-75): 38%; inhibition of growth at 10 µM (SF-295): 27%; inhibition of growth at 10 µM (SF-268): 28%; inhibition of growth at 10 µM (KM12): < 10%; inhibition of growth at 10 µM (HT-29): < 10%; inhibition of growth at 10 µM (HCT-15): 20%; inhibition of growth at 10 µM (HCT-116): 27%; inhibition of growth at 10 µM (HCC 2998): < 10%; inhibition of growth at 10 µM (COLO 205): < 10%; inhibition of growth at 10 µM (NCI-H460): 29% |
| Cc1ccc(NC(=O)CSc2nc3ccccc3c(=O)n2CCc2ccccc2)cc1 | 15% | < 10% | < 10% | 42% | 29% | 29% | 41% | < 10% | 14% | < 10% | < 10% | 13% | 21% | < 10% | < 10% | 27% | < 10% | < 10% | 20% | 20% | inhibition of growth at 10 µM (UACC-257): 17%; inhibition of growth at 10 µM (SK-MEL-5): 22%; inhibition of growth at 10 µM (SK-MEL-28): 22%; inhibition of growth at 10 µM (MDA-MB-435): 17%; inhibition of growth at 10 µM (M14): < 10%; inhibition of growth at 10 µM (LOX IMVI): 14%; inhibition of growth at 10 µM (U-251): 11%; inhibition of growth at 10 µM (SNB-75): 12%; inhibition of growth at 10 µM (SF-295): 12%; inhibition of growth at 10 µM (SF-268): 19%; inhibition of growth at 10 µM (KM12): 11%; inhibition of growth at 10 µM (HT-29): < 10%; inhibition of growth at 10 µM (HCT-15): 10%; inhibition of growth at 10 µM (HCT-116): 13%; inhibition of growth at 10 µM (HCC 2998): < 10%; inhibition of growth at 10 µM (COLO 205): 15%; inhibition of growth at 10 µM (NCI-H460): 22% |

From ChEMBL document CHEMBL2396621, “Design, synthesis and biological evaluation of 2-mercapto-3-phenethylquinazoline bearing anilide fragments as potential antitumor agents: molecular docking study” (2013)
